Results reported in ChEMBL document CHEMBL5727253, “Tricyclic compounds and compositions as kinase inhibitors” (2019).
Several values for one entry are separate records, joined by “and”; a condition that tells them apart may be missing. Identical values can stand only once.

Experiment: Biological Assays: The activity of a compound according to the present invention can be assessed by well-known in vitro & in vivo methods. […] CRAF cDNA was subcloned as full length protein, with Y340E and Y341E activating mutations, into a baculovirus expression vector for Sf9 insect cell expression. h14-3-3 zeta cDNA was subcloned into a baculovirus expression vector for SF9 insect cell expression. Sf9 cells co-expressing both proteins were lysed and subjected to immobilized nickel chromatography and eluted with Imidazole. A second column (StrepII binding column) was used and eluted with desthiobiotin. Protein Tags were removed using Prescission enzyme and the protein was further purified using a flowthrough step to remove tags.C-Raf TR refers to a truncated C-Raf protein, a Δ1-324 deletion mutant. C-Raf FL refers to the full-length C-Raf protein.Full length MEK1 with an inactivating K97R ATP binding site mutation is utilized as a RAF substrate. The MEK1 cDNA was subcloned with an N-terminal (his)6 tag into a vector for E. Coli expression. The MEK1 substrate was purified from E. Coli lysate by nickel affinity chromatography followed by anion exchange. The final MEK1 preparation was biotinylated (Pierce EZ-Link Sulfo-NHS-LC-Biotin) and concentrated.Assay Materials: Assay buffer is 50 mM Tris, pH 7.5, 15 mM MgCl2, 0.01% Bovine Serum Albumin (BSA) and 1 mM dithiothreitol (DTT); Stop buffer is 60 mM ethylenediaminetetraacetic acid (EDTA) and 0.01% Tween® 20; b-Raf (V600E), active; biotinylated Mek, kinase dead; Alpha Screen detection kit (available from PerkinElmer™, #6760617R); Anti phospho-MEK1/2 (available from Cell Signaling Technology, Inc. #9121); 384 well low volume assay plates (White Greiner® plates).Assay conditions: b-Raf (V600E) approximately 4 pM; c-Raf approximately 4 nM; biotinylated Mek, kinase dead approximately 10 nM; ATP 10 μM for BRAF (V600E) and 1 μM for CRAF; Pre-incubation time with compounds 60 minutes at room temperature; Reaction time 1 or 3 hours at room temperature.Assay protocol: Raf and biotinylated Mek (kinase dead) were combined at 2× final concentrations in assay buffer (50 mM Tris, pH 7.5, 15 mM MgCl2, 0.01% BSA and 1 mM DTT) and dispensed […] per well in assay plates (Greiner white 384 well assay plates #781207) containing […] of 40× of a Raf kinase inhibitor test compound diluted in 100% DMSO. The plate was incubated for 60 minutes at room temperature. The Raf kinase activity reaction was started by the addition of […] per well of 2×ATP diluted in assay buffer. After 3 hours (b-Raf(V600E)) or 1 hour (c-Raf). The reactions were stopped and the phosphorylated product was measured using a rabbit anti-p-MEK (Cell Signaling, #9121) antibody and the Alpha Screen IgG (ProteinA) detection Kit (PerkinElmer #6760617R), by the addition of […] to the well of a mixture of the antibody (1:2000 dilution) and detection beads (1:2000 dilution of both beads) in Stop/bead buffer (25 mM EDTA, 50 mM Tris, pH 7.5, 0.01% Tween20). The additions were carried out under dark conditions to protect the detection beads from light. A lid was placed on top of the plate and incubated for 1 hour at room temperature, after which the luminescence was read on a PerkinElmer Envision instrument.
Assay type: biochemical

| SMILES | IC50 |
| --- | --- |
| CC[C@H]1Cc2nnc(-c3cc(NC(=O)c4ccnc(C(C)(F)F)c4)ccc3C)cc2N2CCOC[C@H]12 | 0.2 nM |
| CC[C@H]1Cc2nnc(-c3cc(NC(=O)c4ccnc(C(C)(F)F)c4)ccc3C)cc2N2CCOC[C@@H]12 | 0.1 nM |
| CC[C@@H]1Cc2nnc(-c3cc(NC(=O)c4ccnc(C(C)(F)F)c4)ccc3C)cc2N2CCOC[C@H]12 | 0.1 nM |
| Cc1ccc(NC(=O)c2ccnc(C(C)(F)F)c2)cc1-c1ccc2c(c1)N1CCOC[C@H]1[C@@](C)(N)C2 | 0.61 nM |
| Cc1ncc(NC(=O)c2cccc(C(F)(F)F)c2)cc1-c1cnc2c(c1)N1CCOC[C@H]1[C@](F)(CO)C2 | 1.1 nM |
| CNC(=O)C1Cc2ccc(-c3cc(NC(=O)c4ccnc(C(F)(F)F)c4)ccc3C)cc2N2CCOC[C@@H]12 (some centres not stated) | 0.032 nM and 0.027 nM |
| Cc1ccc(NC(=O)c2ccnc(C(C)(F)F)c2)cc1-c1ccc2c(c1)N1CCOC[C@@H]1[C@](C)(N)C2 | 0.025 nM |
| CNC(=O)C1Cc2ccc(-c3cc(NC(=O)c4ccnc(C(F)(F)F)c4)ccc3C)cc2N2CCOC[C@H]12 (some centres not stated) | 0.028 nM and 0.014 nM |
| CNC(=O)[C@@H]1Cc2ccc(-c3cc(NC(=O)c4ccnc(C(F)(F)F)c4)ccc3C)cc2N2CCOC[C@H]12 | 0.13 nM |
| Cc1ccc(NC(=O)c2ccnc(C(F)(F)F)c2)cc1-c1cnc2c(c1)N1CCOCC1[C@H](CO)C2 (mixture of isomers) | 0.005 nM |
| Cc1ccc(NC(=O)c2ccnc(C(F)(F)F)c2)cc1-c1cnc2c(c1)N1CCOCC1C(CS(C)(=O)=O)C2 (racemic) | 0.038 nM |
| Cc1ncc(NC(=O)c2cccc(C(F)(F)F)c2)cc1-c1ccc2c(c1)N1CCOCC1CC2O (racemic) | 0.01 nM |
